# Measurements: patent publication US9636376B2, “Stable compositions of peptide epoxy ketones” (priority 2012, dated 2017)
# Key:
# proteasome = details: blood and tissue; cited from earlier work
# [1] = tested on: models of multiple myeloma, hematologic, and solid tumors; details: cited from earlier work
# [2] = Effect of pH on saturation solubility of carfilzomib; type: physicochemical; details: aqueous buffer, thermodynamic from solid
# Description: For instance, a buffer is typically used in the liquid pharmaceutical compositions of the invention to control the pH.
# [3] = tested on: solid and hematologic tumor cells; details: cited from earlier work
smiles,measurement,setting,value
"CC(C)C[C@H](NC(=O)[C@H](CCc1ccccc1)NC(=O)CN1CCOCC1)C(=O)N[C@@H](Cc1ccccc1)C(=O)N[C@@H](CC(C)C)C(=O)[C@@]1(C)CO1 [Carfilzomib, (2S)—N—((S)-1-((S)-4-methyl-1-((R)-2-methyloxiran-2-yl)-1-oxopentan-2-ylcarbamoyl)-2-phenylethyl)-2-((S)-2-(2-morpholinoacetamido)-4-phenylbutanamido)-4-methylpentanamide]",Effect on proteasome activity,proteasome,inhibit proteasome activity
same,Effect on tumor growth,[1],delay tumor growth
same,solubility,"[2]; 1% L-cysteine solution, pH 1.7 (1% L-Cysteine)",459 µg/mL
same,solubility,[2]; pH 3.5 (15 mM Acetate Buffer),125 µg/mL
same,solubility,[2]; pH 5.0 (15 mM Citrate Buffer),9 µg/mL
same,solubility,[2]; pH 7.0 (15 mM Phosphate Buffer),5 µg/mL
same,Activities in vitro in tumor cells,[3],antiproliferative and proapoptotic activities
